# Test results as given in patent US5534533A, “Carboxylate derivatives exhibiting phospholipase A2 inhibitory activity” (Shionogi & Co., Ltd., priority 1993, dated 1996).
# Where a name gives a salt, the structure may show the parent alone.
# Assays:
# [1] = target: T1, intracellular PLA2 (cytosolic PLA2, cPLA2) (Homo sapiens, UniProt P47712); test: Intracellular PLA2 (cPLA2) inhibitory activity (14C-arachidonyl phosphatidylcholine substrate); format: biochemical; details: 2 μM radiolabelled phosphatidylcholine, 1 μM dioleoylglycerol, 1 mM CaCl2, pH 7.4; read-out: c-PLA2 Inhibition IC50
# T1 sequence (P47712 1-749): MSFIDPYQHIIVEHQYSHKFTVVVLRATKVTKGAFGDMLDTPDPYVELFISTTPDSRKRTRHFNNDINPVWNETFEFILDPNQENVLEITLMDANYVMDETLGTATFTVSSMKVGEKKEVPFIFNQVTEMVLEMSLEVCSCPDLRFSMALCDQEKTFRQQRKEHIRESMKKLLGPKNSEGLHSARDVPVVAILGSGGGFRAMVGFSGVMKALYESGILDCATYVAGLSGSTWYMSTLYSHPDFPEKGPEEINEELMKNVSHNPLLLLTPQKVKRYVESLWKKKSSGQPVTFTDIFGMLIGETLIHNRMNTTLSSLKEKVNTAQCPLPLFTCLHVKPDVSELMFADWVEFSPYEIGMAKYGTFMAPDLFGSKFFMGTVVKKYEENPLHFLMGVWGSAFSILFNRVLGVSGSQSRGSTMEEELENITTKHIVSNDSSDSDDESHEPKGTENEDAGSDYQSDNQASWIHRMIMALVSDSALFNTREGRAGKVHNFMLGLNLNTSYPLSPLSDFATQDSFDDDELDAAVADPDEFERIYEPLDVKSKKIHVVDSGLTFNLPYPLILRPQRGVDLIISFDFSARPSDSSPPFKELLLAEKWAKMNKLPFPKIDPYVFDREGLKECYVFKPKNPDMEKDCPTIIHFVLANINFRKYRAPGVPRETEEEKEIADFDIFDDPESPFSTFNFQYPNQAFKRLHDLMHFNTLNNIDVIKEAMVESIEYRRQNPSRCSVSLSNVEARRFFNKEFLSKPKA
# Procedure: cPLA2 activity was assayed according to the method described in R. M. Kramer, E. F. Roberts, J. Manetta and J. E. Putnam, J. Biol. Chem., 268 (8), 5268-5272 (1991). Briefly, intracellular PLA2 activity was assayed using supersonic treated […] which contain 1-palmitoyl-2-[^14 C]arachidonyl-sn-glycero-3-phosphocholine and sn-1, 2-dioleoylglycerol at a molar ratio of 2:1. This test mixture contained 1 mM CaCl2, 2 mM dithiothreitol, 150 mM NaCl, 50 mM Hepes, pH 7.4 and 0.1 mg/ml BSA. A substrate is a 2 μM radioisotope labelled phosphatidylcholine ribosome containing 1 μM dioleoylglycerol. IC50 value is calculating in the same manner as in calculating it for secretory PLA2 inhibitory activity.
# Human secretory PLA2 = target: T2, Human secretory PLA2 (Homo sapiens, UniProt P14555); test: Secretory PLA2 inhibitory activity (diheptanoyl thio PC substrate, absorbance at 405 nm); format: biochemical; details: diheptanoyl thio PC 1 mM, Triton X100 0.3 mM, pH 7.3, CaCl2 10 mM, 30 minutes, read-out: s-PLA2 Inhibition IC50
# T2 sequence (P14555 21-144): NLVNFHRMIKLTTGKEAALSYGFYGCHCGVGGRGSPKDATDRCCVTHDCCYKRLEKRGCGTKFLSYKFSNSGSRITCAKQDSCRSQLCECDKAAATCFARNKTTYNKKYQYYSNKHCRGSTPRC
# Procedure: Secretory PLA2 activity was assayed according to the method described in Penynolds L. J., Hughes L. L., Dennis E. A. et al. Anal. Biochem. 201,190-197 (1992).
# Diheptanoyl thiophosphatidylcholine which was prepared according to the procedure described in the literature was used as a substrate. Human secretory PLA2 was used as an enzyme. The diheptanoyl thio PC (1 mM) was reacted with the human secretory PLA2 in the presence of Triton X100 (0.3 mM) and 5,5'-dithiobis-(2-nitrobenzoic acid) (125 μM) in Tris buffer (25 mM, pH 7.3), CaCl2 (10 mM), KCI (100 mM), bovine serum albumin (1.0 mg/ml), and then the change in absorbance at 405 nm at the time of 30 minutes after the reaction was assayed.
# Inhibitory activity (%) was estimated by the formula: [(the change in absorbance with the inhibitor and PLA2 ·the change in absorbance with the inhibitor and without PLA2)/(the change in absorbance without the inhibitor and with PLA2 ·the change in absorbance without the inhibitor and PLA2)]×100.
# IC50 value (μM) was calculated from graph showing inhibitory values on the vertical axis and log of concentrations of the inhibitor on the horizontal axis.
Compound,IC50 [1] [µM],IC50 (Human secretory PLA2) [µM]
"COc1c(C(C)(C)C)cc(SCCCCCCOc2c(C)c(C)c(C(=O)O)c(OC)c2C)cc1C(C)(C)C [Example 13, 4-[6-(3,5-Di-tert-butyl-4-methoxyphenylthio)hexyloxy]-2-methoxy-3,5,6-trimethylbenzoic acid]",1.9,> 50
"COc1c(C)c(OC(=O)c2c(C)c(C)c(OCCCOc3ccc(F)cc3F)c(C)c2OC)c(C)c(C)c1C(=O)O [Example 14, 4-[4-[3-(2,4-difluorophenoxy)propyloxy]-2-methoxy-3,5,6-trimethylphenylcarboxy]-2-methoxy-3,5,6-trimethylbenzoic acid]",9.4,14
"COc1c(C(C)(C)C)cc(SCCCOc2c(C)c(C)c(C(=O)O)c(OC)c2C)cc1C(C)(C)C [Example 16, 4-[3-(3,5-Di-tert-butyl-4-methoxyphenylthio)propyloxy]-2-methoxy-3,5,6-trimethylbenzoic acid]",2.6,> 50
"COc1ccc(OCCCOc2c(C)c(C)c(C(=O)Oc3c(C)c(C)c(C(=O)O)c(OC)c3C)c(OC)c2C)cc1 [Example 17, 4-[4-[3-(4-Methoxyphenoxy)propyloxy]-2-methoxy-3,5,6-trimethylphenylcarboxy]-2-methoxy-3,5,6-trimethylbenzoic acid]",14,12
"COc1c(C)c(OCCCOc2ccc3ccccc3c2)c(C)c(C)c1C(=O)O [Example 18, 2-Methoxy-3,5,6-trimethyl-4-[3-(2-naphthyloxy)-propyloxy]benzoic acid]",19,> 50
"COc1c(C)c(OC(=O)c2c(C)c(C)c(OCCCOc3ccc4ccccc4c3)c(C)c2OC)c(C)c(C)c1C(=O)O [Example 19, 4-[2-Methoxy-3,5,6-trimethyl-4-[3-(2-naphthyloxy)-propyloxy]phenylcarboxy]-2-methoxy-3,5,6-trimethylbenzoic acid]",1.8,16
"COc1ccc(OCCCOc2c(C)c(C)c(C(=O)Oc3c(C)c(C)c(C(=O)O)c(OC)c3C)c(OC)c2C)cc1OC [Example 20, 4-[4-[3-(3,4-Dimethoxyphenoxy)propyloxy]-2-methoxy-3,5,6-trimethylphenylcarboxy]-2-methoxy-3,5,6-trimethylbenzoic acid]",35,11
"COc1cc(OCCCOc2c(C)c(C)c(C(=O)Oc3c(C)c(C)c(C(=O)O)c(OC)c3C)c(OC)c2C)c(C(c2ccccc2)c2ccccc2)cc1OC [Example 21, 4-[4-[3-(2-Benzhydryl-4,5-dimethoxyphenoxy)propyloxy]-2-methoxy-3,5,6-trimethylphenylcarboxy]-2-methoxy-3,5,6-trimethylbenzoic acid]",1.4,15
"COc1c(C)c(OC(=O)c2c(C)c(C)c(OCCCNc3ccc(C(F)(F)F)cc3)c(C)c2OC)c(C)c(C)c1C(=O)O [Example 22, 4-[4-[3-(4-Trifluoromethylphenylamino)propyloxy]-2-methoxy-3,5,6-trimethylphenylcarboxy]-2-methoxy-3,5,6 trimethylbenzoic acid hydrochloride]",4.3,42
"COc1c(C)c(OC(=O)c2c(C)c(C)c(OCCCOc3ccc(Cl)cc3Cl)c(C)c2OC)c(C)c(C)c1C(=O)O [Example 24, 4-{4-[3-(2,4-Dichlorophenoxy)propoxy]-2-methoxy-3,5,6-trimethylbenzoyloxy}-2-methoxy-3,5,6-trimethylbenzoic Acid]",2.8,12
"COc1c(C)c(OC(=O)c2c(C)c(C)c(OCCCOc3ccc(Br)cc3Br)c(C)c2OC)c(C)c(C)c1C(=O)O [Example 26, 4-{4-[3-(2,4-Dibromophenoxy)propoxy]-2-methoxy-3,5,6-trimethylbenzoyloxy}-2-methoxy-3,5,6-trimethylbenzoic Acid]",2.6,15
"COc1c(C)c(OC(=O)c2c(C)c(C)c(OCCCOc3cc4c(cc3C(c3ccccc3)c3ccccc3)OCO4)c(C)c2OC)c(C)c(C)c1C(=O)O [Example 27, 4-{4-[3-(6-Benzhydrylbenzo[1, 3]dioxol-5-yloxy)-propoxy]-2-methoxy-3,5,6-trimethylbenzoyloxy}-2-methoxy-3,5,6-trimethylbenzoic Acid]",1.5,13
"COc1c(C)c(OC(=O)c2c(C)c(C)c(OCCCOc3ccc4c(c3)OCO4)c(C)c2OC)c(C)c(C)c1C(=O)O [Example 28, 4-{4-[3-(Benzo[1, 3]dioxol-5-yloxy)propoxy]-2-methoxy-3,5,6-trimethylbenzoyloxy}-2-methoxy-3,5,6-trimethylbenzoic Acid]",10,6.9
"CCc1ccc(OCCCOc2c(C)c(C)c(C(=O)Oc3c(C)c(C)c(C(=O)O)c(OC)c3C)c(OC)c2C)cc1 [Example 30, 4-{4-[3-(4-Ethylphenoxy)propoxy]-2-methoxy-3,5,6-trimethylbenzoyloxy}-2-methoxy-3,5,6-trimethylbenzoic Acid]",5.4,16
"COc1c(C)c(OC(=O)c2c(C)c(C)c(OCCCOc3ccc(C(C)=O)cc3)c(C)c2OC)c(C)c(C)c1C(=O)O [Example 31, 4-{4-[3-(4-Acetylphenoxy)propoxy]-2-methoxy-3,5,6-trimethylbenzoyloxy}-2-methoxy-3,5,6-trimethylbenzoic Acid]",24,7
"COc1c(C)c(OC(=O)c2c(C)c(C)c(OCCCOc3ccc(C(=O)O)cc3)c(C)c2OC)c(C)c(C)c1C(=O)O [Example 32, 4-{4-[3-(4-Carboxyphenoxy)propoxy]-2-methoxy-3,5,6-trimethylbenzoyloxy}-2-methoxy-3,5,6-trimethylbenzoic Acid]",38,10
"COc1c(C)c(OC(=O)c2c(C)c(C)c(OCCCOc3ccccc3F)c(C)c2OC)c(C)c(C)c1C(=O)O [Example 33, 4-{4-[3-(2-Fluorophenoxy)propoxy]-2-methoxy-3,5,6-trimethylbenzoyloxy}-2-methoxy-3,5,6-trimethylbenzoic Acid]",12,26
"COc1c(C)c(OC(=O)c2c(C)c(C)c(OCCCOc3cccc(F)c3)c(C)c2OC)c(C)c(C)c1C(=O)O [Example 34, 4-{4-[3-(3-Fluorophenoxy)propoxy]-2-methoxy-3,5,6-trimethylbenzoyloxy}-2-methoxy-3,5,6-trimethylbenzoic Acid]",9.7,50
"COc1c(C)c(OC(=O)c2c(C)c(C)c(OCCCS(=O)(=O)c3ccc(F)cc3)c(C)c2OC)c(C)c(C)c1C(=O)O [Example 36, 4-{4-[3-(4-Fluorobenzenesulfonyl)propoxy]-2-methoxy-3,5,6-trimethylbenzoyloxy}-2-methoxy-3,5,6-trimethylbenzoic Acid]",> 50,50
"COc1c(C)c(OC(=O)c2c(C)c(C)c(OCCCOc3cccc(F)c3F)c(C)c2OC)c(C)c(C)c1C(=O)O [Example 37, 4-{4-[3-(2,3-Difluorophenoxy)propoxy]-2-methoxy-3,5,6-trimethylbenzoyloxy}-2-methoxy-3,5,6-trimethylbenzoic Acid]",6.6,12
"COc1c(C)c(OC(=O)c2c(C)c(C)c(OCCCOc3c(F)cccc3F)c(C)c2OC)c(C)c(C)c1C(=O)O [Example 38, 4-{4-[3-(2,6-Difluorophenoxy)propoxy]-2-methoxy-3,5,6-trimethylbenzoyloxy}-2-methoxy-3,5,6-trimethylbenzoic Acid]",7.1,6.7
